In the NIST ThermoML archive (doi:10.1021/je200811n):

Settings: Hot wire method

C=C(F)C(F)(F)F [2,3,3,3-tetrafluoro-1-propene]
Settings	thermal conductivity [W/m/K]
303.53 K, 5728 kPa, Liquid	0.06591
303.55 K, 638 kPa, Gas	0.01428
303.58 K, 863 kPa, Liquid	0.06214
303.62 K, 95 kPa, Gas	0.01418
303.69 K, 16013 kPa, Liquid	0.0724
303.7 K, 10745 kPa, Liquid	0.06899
303.7 K, 20552 kPa, Liquid	0.07462
303.71 K, 509 kPa, Gas	0.0142
303.73 K, 5727 kPa, Liquid	0.06571
303.76 K, 199 kPa, Gas	0.01415
303.8 K, 863 kPa, Liquid	0.06166
303.93 K, 349 kPa, Gas	0.01413
304.07 K, 95 kPa, Gas	0.01428
304.07 K, 16014 kPa, Liquid	0.07249
304.07 K, 20551 kPa, Liquid	0.07457
304.1 K, 10744 kPa, Liquid	0.06936
304.15 K, 5727 kPa, Liquid	0.06587
304.2 K, 199 kPa, Gas	0.0142
304.24 K, 861 kPa, Liquid	0.06192
304.28 K, 20546 kPa, Liquid	0.07468
304.3 K, 16011 kPa, Liquid	0.07229
304.33 K, 10741 kPa, Liquid	0.069
304.39 K, 5724 kPa, Liquid	0.06553
304.5 K, 861 kPa, Liquid	0.06141
304.55 K, 95 kPa, Gas	0.01429
311.19 K, 200 kPa, Gas	0.01522
311.21 K, 97 kPa, Gas	0.01495
311.39 K, 298 kPa, Gas	0.01522
311.41 K, 200 kPa, Gas	0.01508
311.44 K, 97 kPa, Gas	0.01475
311.61 K, 298 kPa, Gas	0.01516
311.64 K, 200 kPa, Gas	0.01494
311.67 K, 98 kPa, Gas	0.01469
311.84 K, 298 kPa, Gas	0.01507
311.87 K, 877 kPa, Gas	0.01518
311.89 K, 200 kPa, Gas	0.01484
311.92 K, 97 kPa, Gas	0.01463
311.99 K, 676 kPa, Gas	0.01501
312.01 K, 610 kPa, Gas	0.01499
312.09 K, 298 kPa, Gas	0.01504
312.14 K, 200 kPa, Gas	0.01477
312.15 K, 876 kPa, Gas	0.01537
312.16 K, 409 kPa, Gas	0.0149
312.18 K, 97 kPa, Gas	0.01458
312.25 K, 298 kPa, Gas	0.01491
312.3 K, 675 kPa, Gas	0.01513
312.31 K, 610 kPa, Gas	0.01511
312.36 K, 200 kPa, Gas	0.01491
312.46 K, 875 kPa, Gas	0.01532
312.49 K, 408 kPa, Gas	0.01491
312.57 K, 97 kPa, Gas	0.01511
312.58 K, 298 kPa, Gas	0.01491
312.62 K, 673 kPa, Gas	0.01513
312.66 K, 608 kPa, Gas	0.01506
312.72 K, 200 kPa, Gas	0.01494
312.8 K, 873 kPa, Gas	0.01537
312.85 K, 408 kPa, Gas	0.01492
312.96 K, 298 kPa, Gas	0.01498
312.97 K, 97 kPa, Gas	0.01513
312.97 K, 673 kPa, Gas	0.01511
313.01 K, 607 kPa, Gas	0.01512
313.11 K, 200 kPa, Gas	0.01497
313.15 K, 872 kPa, Gas	0.01537
313.23 K, 408 kPa, Gas	0.01499
313.34 K, 672 kPa, Gas	0.01515
313.36 K, 298 kPa, Gas	0.01497
313.38 K, 608 kPa, Gas	0.01508
313.39 K, 98 kPa, Gas	0.01515
313.53 K, 200 kPa, Gas	0.015
313.62 K, 409 kPa, Gas	0.01501
313.78 K, 298 kPa, Gas	0.01501
313.83 K, 97 kPa, Gas	0.01516
313.96 K, 201 kPa, Gas	0.01503
314.3 K, 97 kPa, Gas	0.01518
321.31 K, 103 kPa, Gas	0.01573
321.31 K, 200 kPa, Gas	0.01591
321.31 K, 302 kPa, Gas	0.01608
321.46 K, 1449 kPa, Liquid	0.05663
321.54 K, 103 kPa, Gas	0.01562
321.54 K, 200 kPa, Gas	0.01577
321.54 K, 302 kPa, Gas	0.01588
321.56 K, 1449 kPa, Liquid	0.05669
321.75 K, 1115 kPa, Gas	0.0164
321.76 K, 302 kPa, Gas	0.01587
321.78 K, 103 kPa, Gas	0.01553
321.79 K, 200 kPa, Gas	0.01566
321.82 K, 1447 kPa, Liquid	0.05704
321.95 K, 1449 kPa, Liquid	0.05672
321.97 K, 6367 kPa, Liquid	0.06142
322.01 K, 302 kPa, Gas	0.01579
322.01 K, 11135 kPa, Liquid	0.06547
322.03 K, 200 kPa, Gas	0.0156
322.04 K, 103 kPa, Gas	0.01545
322.04 K, 1115 kPa, Gas	0.01641
322.11 K, 1199 kPa, Gas	0.01674
322.14 K, 959 kPa, Gas	0.01623
322.15 K, 16399 kPa, Liquid	0.06904
322.18 K, 862 kPa, Gas	0.0161
322.22 K, 1450 kPa, Liquid	0.05677
322.22 K, 6361 kPa, Liquid	0.06113
322.24 K, 721 kPa, Gas	0.01595
322.25 K, 302 kPa, Gas	0.01579
322.25 K, 21278 kPa, Liquid	0.07192
322.26 K, 11135 kPa, Liquid	0.06468
322.26 K, 16399 kPa, Liquid	0.06856
322.28 K, 617 kPa, Gas	0.01584
322.29 K, 200 kPa, Gas	0.01556
322.33 K, 103 kPa, Gas	0.01529
322.35 K, 1115 kPa, Gas	0.01644
322.36 K, 21276 kPa, Liquid	0.07119
322.37 K, 1451 kPa, Liquid	0.05654
322.37 K, 6358 kPa, Liquid	0.06119
322.38 K, 454 kPa, Gas	0.01579
322.39 K, 1199 kPa, Gas	0.01671
322.39 K, 11134 kPa, Liquid	0.06479
322.45 K, 958 kPa, Gas	0.01621
322.5 K, 861 kPa, Gas	0.01614
322.51 K, 302 kPa, Gas	0.01582
322.56 K, 720 kPa, Gas	0.01597
322.6 K, 16396 kPa, Liquid	0.06784
322.62 K, 617 kPa, Gas	0.01591
322.63 K, 6353 kPa, Liquid	0.06144
322.64 K, 201 kPa, Gas	0.01586
322.65 K, 1450 kPa, Liquid	0.05654
322.66 K, 11130 kPa, Liquid	0.06486
322.67 K, 1114 kPa, Gas	0.01646
322.69 K, 1199 kPa, Gas	0.01673
322.71 K, 21274 kPa, Liquid	0.0708
322.73 K, 453 kPa, Gas	0.01585
322.76 K, 958 kPa, Gas	0.01622
322.76 K, 16394 kPa, Liquid	0.06823
322.8 K, 6353 kPa, Liquid	0.06127
322.81 K, 103 kPa, Gas	0.01605
322.81 K, 11128 kPa, Liquid	0.06487
322.82 K, 860 kPa, Gas	0.01612
322.84 K, 1450 kPa, Liquid	0.05629
322.84 K, 21270 kPa, Liquid	0.07095
322.88 K, 302 kPa, Gas	0.01585
322.91 K, 720 kPa, Gas	0.01599
322.98 K, 616 kPa, Gas	0.01592
323 K, 200 kPa, Gas	0.01592
323 K, 1199 kPa, Gas	0.01678
323.01 K, 1114 kPa, Gas	0.01647
323.08 K, 11126 kPa, Liquid	0.06485
323.09 K, 6351 kPa, Liquid	0.06135
323.1 K, 453 kPa, Gas	0.0159
323.11 K, 957 kPa, Gas	0.01622
323.13 K, 1448 kPa, Liquid	0.05646
323.15 K, 16396 kPa, Liquid	0.06821
323.18 K, 859 kPa, Gas	0.01617
323.22 K, 103 kPa, Gas	0.01607
323.23 K, 21266 kPa, Liquid	0.07101
323.26 K, 11126 kPa, Liquid	0.06472
323.27 K, 719 kPa, Gas	0.016
323.28 K, 302 kPa, Gas	0.0159
323.28 K, 6351 kPa, Liquid	0.06102
323.33 K, 1199 kPa, Gas	0.01671
323.34 K, 614 kPa, Gas	0.01597
323.34 K, 1447 kPa, Liquid	0.05607
323.34 K, 16393 kPa, Liquid	0.06817
323.4 K, 200 kPa, Gas	0.01592
323.4 K, 21264 kPa, Liquid	0.07095
323.46 K, 956 kPa, Gas	0.01625
323.49 K, 453 kPa, Gas	0.01593
323.55 K, 858 kPa, Gas	0.01618
323.65 K, 103 kPa, Gas	0.01611
323.66 K, 718 kPa, Gas	0.01605
323.69 K, 302 kPa, Gas	0.01592
323.73 K, 612 kPa, Gas	0.01601
323.75 K, 16392 kPa, Liquid	0.06817
323.8 K, 21262 kPa, Liquid	0.07093
323.83 K, 200 kPa, Gas	0.01593
323.91 K, 453 kPa, Gas	0.01589
323.97 K, 16390 kPa, Liquid	0.068
324 K, 21259 kPa, Liquid	0.07084
324.11 K, 302 kPa, Gas	0.01598
324.12 K, 103 kPa, Gas	0.01612
324.29 K, 200 kPa, Gas	0.01599
324.62 K, 103 kPa, Gas	0.01618
331.07 K, 101 kPa, Gas	0.01664
331.09 K, 202 kPa, Gas	0.01678
331.12 K, 299 kPa, Gas	0.01699
331.29 K, 101 kPa, Gas	0.0165
331.3 K, 202 kPa, Gas	0.0167
331.34 K, 299 kPa, Gas	0.01685
331.53 K, 101 kPa, Gas	0.01639
331.54 K, 202 kPa, Gas	0.01658
331.56 K, 300 kPa, Gas	0.01677
331.78 K, 102 kPa, Gas	0.01632
331.78 K, 202 kPa, Gas	0.0165
331.8 K, 300 kPa, Gas	0.0167
331.8 K, 1511 kPa, Gas	0.01797
331.86 K, 1389 kPa, Gas	0.0177
331.9 K, 1236 kPa, Gas	0.01732
331.98 K, 1075 kPa, Gas	0.01717
332 K, 975 kPa, Gas	0.01697
332.04 K, 102 kPa, Gas	0.01627
332.04 K, 202 kPa, Gas	0.01642

Liquid
Settings	thermal conductivity [W/m/K]
313.15 K	0.05899
323.15 K	0.05606
